Laboratory results from patent publication US11613750B2, “Methods of reducing virus molecule levels” (priority 2019, dated 2023).

Tests used:
[1] = tested on: HCoV-OC43; experiment: OC43 virion RNA, Branched DNA assay, infected HCT8 cells; type: cell-based, human coronavirus OC43; details: for OC43 vRNA reduction siRNA and siGRP78: 10 nM siRNA along with 10 nM of siRNA targeting GRP78, HCT8 cells; for OC43 vRNA reduction: 10 nM siRNA, HCT8 cells
Description: The siRNAs were transfected in the HCT8 cells at a final concentration of 10 nM. A positive control for the inhibition of Coronavirus infection, Remdesivir (Rem), was used at 0.9 μM. The virion RNAs (vRNAs) were quantified using a Branched DNA assay specific for OC43 RNA.
The two siRNAs are those referred to by compound number (see Table 2) in the horizontal bar, along with siRNA targeting GRP78, siGRP78. A positive control for the inhibition of Coronavirus infection, Remdesivir (Rem), was used at 0.9 μM. The vRNAs were quantified using a Branched DNA assay specific for OC43 RNA.
The siRNAs listed in Table 2 were transfected into human colon epithelial HCT8 cells and the amount of OC43 virion produced was quantified. In these assays, the OC43 vRNA was quantified using a Branched DNA assay (QuantiGene gene expression assay: ThermoFisher). As a positive inhibitory control, the infected cells were treated with Remdesivir. […] Examples of the inhibition of OC43 vRNA are illustrated in FIG. 5A.
A combination of siRNAs targeting the host factor should more robustly reduce OC43 virion production. To illustrate this, HCT8 cells were transfected with 10 nM of siRNAs from Table 2 along with 10 nM of siRNA targeting GRP78. The virion RNAs produced were quantified using the Branched DNA assay. […] A combination of siRNAs targeting host factors GRP78, SRSF1, RPLP1 and RPLP2 can lead to significant reduction in the production of human Coronavirus virion RNA from infected cells.

[2] = tested on: RPLP2 protein; experiment: Target protein reduction by Western blot in HepG2.2.15 cells; type: cell-based, human; details: 10 nM siRNA, 72 h
Description: The host factors likely function in viral infection as proteins. Therefore, we determined whether the siRNAs could decrease the amounts of the target protein. Cell transfected with 10 nM of each siRNA for 72 h were lysed and the target proteins identified using Western blots probed with target-specific antibodies. The effective siRNAs described in Table 3 reduced the levels of the proteins by between 28 and 92% of the mock-treated samples. The reduction in the proteins is less than the reduction of the target mRNA, likely due to the proteins have prolonged half-life and that more time is needed for their degradation. […] We reason that this is due to RPLP1 and RPLP2 functioning as heterodimers such that a decrease of one protein increases the vulnerability of the other protein to degradation. Similar concomitant decrease of the proteins was reported by Campos et al. (17). Finally, the levels of two cellular proteins that are not targeted by the siRNAs, P54nrb and GAPDH, were unaffected.

[3] = tested on: HepG2.2.15 cells; experiment: HepG2.2.15 cell viability, CellTiter-Glo; details: read-out: CC50, HepG2.2.15 cell viability; highest concentration tested 80 nM
Description: (§1) Cell viability was assessed by ATP levels determined using the CellTiter-Glo reagent and the results normalized to the level in mock-treated cells. HBsAg levels were quantified using ELISA and the data normalized to the level in the mock-treated cells.
The effects on cell viability were quantified using the CellTiter-Glo reagent. All data were normalized to the amount of protein produced by mock-treated cells.
(§2) The library of siRNAs of Example A5 were tested for the reduction of HBsAg secreted by HepG2.2.15 cells and in HBV virions.

[4] = tested on: HBeAg; details: 10 nM siRNA transfected into cells
Description: HBeAg in the cell culture media was assessed using ELISAs.
(§3) The ability of siRNAs targeting host factors that then results in the reduced production of multiple HBV molecules was evaluated by quantifying the amount of HBsAg, HBeAg, and Core protein produced by HepG2.2.15 cells after contacting with 10 nM of siRNAs that target HNRNPA2B1, GRP78, RPLP1, RPLP2, and SRSF1. We also contacted the cells with 5 nM of each set of siRNAs that targets both RPLP1 and RPLP2. The level of HBsAg, HBeAg, and Core were all determined using ELISAs.
as §2

[5] = tested on: RPLP2 mRNA; experiment: Target mRNA reduction by RT-qPCR in HepG2.2.15 cells; type: cell-based, human; details: 10 nM siRNA
Source text: The siRNAs identified as described in Example A6 should function by a mechanism that includes being loaded in the RISC complex to cleave the cognate mRNA, leading to the degradation of the mRNA. To examine whether the siRNAs are effective in reducing the target mRNA, we used reverse transcription coupled with quantitative polymerase chain reaction (RT-qPCR) to assess the level of the target mRNA in HepG2.2.15 cells. All 32 siRNAs described in Table 2 reduced the mRNA by more than 75% (Table 3).

[6] = tested on: HBsAg; details: read-out: EC50, Extracell. HBsAg reduction; HepG2.2.15 cells
Description: as §1
The cellular proteins GRP78/BIP, SRSF1, HNRNPA2B1, RPLP1, and RPLP2 were identified as having roles in HBV replication and infection. Various siRNAs and combinations thereof targeting the RNAs encoding these proteins were contacted with HepG2.2.15 cells at a final concentration of 7.5 nM.
The EC50 values of several siRNAs and combinations of siRNAs targeting HNRNPA2B1, GRP78, RPLP1, RPLP2, and/or SRSF1 were determined with respect to the ability to reduce HBsAg levels in HepG2.2.15 cells.
as §3, §2

Substance	OC43 vRNA reduction siRNA and siGRP78 [1] [%]	OC43 vRNA reduction [1] [%]	Target protein reduction in HepG2.2.15 cells [2] [%]	CC50 [3] [nM]	HBeAg reduction HepG2.2.15 cells [4] [%]	Target RNA reduction in HepG2.2.15 cells [5] [%]	EC50 [6] [nM]
41 (AUGGGAUUUGGCCUUUUUGAUUUAUCAAAAAGGCCAAAUCCCAUUU; siRNA; Self-complementary hairpin strand, chemistry not given here, further chemistry not given here; listed as Homo sapiens) [compound 41]	81 ± 7	89 ± 5	58 ± 2	> 80	40 ± 4	97 ± 1	0.208
42 (CCCAGCGCCAAGGACAUCAAGUUCUUGAUGUCCUUGGCGCUGGGUU; siRNA; Self-complementary hairpin strand, chemistry not given here, further chemistry not given here; listed as Homo sapiens) [compound 42]	85 ± 7	57 ± 5	50 ± 4	> 80	42 ± 2	95 ± 1	0.385
43 (GUAUCGAGGCGGACGACGACCUUGGUCGUCGUCCGCCUCGAUACUU; siRNA; Self-complementary hairpin strand, chemistry not given here, further chemistry not given here; listed as Homo sapiens) [compound 43]	92 ± 2	94 ± 1	45 ± 4	> 80	70 ± 5	94 ± 2	0.182
44 (UGAGCUGAAUGGAAAAAACAUUUAUGUUUUUUCCAUUCAGCUCAUU; siRNA; Self-complementary hairpin strand, chemistry not given here, further chemistry not given here; listed as Homo sapiens) [compound 44]	92 ± 2		59 ± 11	> 80	30 ± 4	99 ± 1	0.084
45 (GGAAAAAACAUUGAAGACGUCUUGACGUCUUCAAUGUUUUUUCCUU; siRNA; Self-complementary hairpin strand, chemistry not given here, further chemistry not given here; listed as Homo sapiens) [compound 45]	89 ± 2		61 ± 7	> 80	42 ± 5	98 ± 1	0.013
46 (GAAAGAUGAGAAGAAGGAGGAUUUCCUCCUUCUUCUCAUCUUUCUU; siRNA; Self-complementary hairpin strand, chemistry not given here, further chemistry not given here; listed as Homo sapiens) [compound 46]	87 ± 4		56 ± 8	> 80	44 ± 5	98 ± 1	1.1
47 (UGGCCUUUUUGAUUAAAUUTTAAUUUAAUCAAAAAGGCCAAA; siRNA; Self-complementary hairpin strand, chemistry not given here, further chemistry not given here; listed as Homo sapiens) [compound 47]	89 ± 2		67 ± 5	> 80	38 ± 5	97 ± 3	0.07
48 (GCGCCAAGGACAUCAAGAATTUUCUUGAUGUCCUUGGCGCAA; siRNA; Self-complementary hairpin strand, chemistry not given here, further chemistry not given here; listed as Homo sapiens) [compound 48]	88 ± 5		54 ± 8	> 80	32 ± 5	97 ± 0	0.1
49 (AAACAUUGAAGACGUCAUUTTAAUGACGUCUUCAAUGUUUTT; siRNA; Self-complementary hairpin strand, chemistry not given here, further chemistry not given here; listed as Homo sapiens) [compound 49]	91 ± 3		59 ± 4	> 80	32 ± 6	98 ± 1	0.026
50 (CGACCGGCUCAACAAGGUUTTAACCUUGUUGAGCCGGUCGTC; siRNA; Self-complementary hairpin strand, chemistry not given here, further chemistry not given here; listed as Homo sapiens) [compound 50]	91 ± 2		48 ± 2	> 80	42 ± 5	98 ± 1	0.095
51 (GAAGAUCUUGGACAGCGUGTTCACGCUGUCCAAGAUCUUCTT; siRNA; Self-complementary hairpin strand, chemistry not given here, further chemistry not given here; listed as Homo sapiens) [compound 51]	90 ± 2		56 ± 5	> 80	32 ± 4	98 ± 0	0.1
52 (CAAGGUUAUCAGUGUGCUGTTCAGCACACUGAUAACCUUGTT; siRNA; Self-complementary hairpin strand, chemistry not given here, further chemistry not given here; listed as Homo sapiens) [compound 52]	91 ± 2		58 ± 1	> 80	54 ± 5	98 ± 1	0.06
